Values of other authors, collected in patent US4112071A, “Antibiotic complex” (priority 1977, dated 1978).

Columns and labels:
animal and human cancers = settings: Cancer Chemother. Rep., Part 1, 58, 255 (1974)
[1] = tested on: several animal tumor systems; settings: J. Antibiotics, April 1974, 254-259

CC(=O)[C@]1(O)Cc2c(O)c3c(c(O)c2[C@@H](O[C@H]2C[C@H](N)[C@H](O)[C@H](C)O2)C1)C(=O)c1c(O)cccc1C3=O [carminomycin I]
antitumor activity in a variety of animal and human cancers (animal and human cancers): promising antitumor activity | activity against several animal tumor systems [1]: active
